Like-named read-outs stand apart in the source and are kept apart here.
Test system: Septoria tritici
Assay: curative testing against Septoria tritici on wheat plants in pots, visual score of disease severity
Format: in vivo
Conditions: Zymoseptoria tritici, adjuvant (if any) 0.1 %w/v, spray 200l/ha, read-out: % Efficacy; for Emax at 3 µg/mL: isopyrazam 3 mg per litre; for Emax at 10 µg/mL: isopyrazam 10 mg per litre; for Emax at 30 µg/mL: isopyrazam 30 mg per litre; for Emax at 100 µg/mL: isopyrazam 100 mg per litre
Procedure: The test data relate to curative testing against Septoria tritici on wheat. The wheat plants in pots are inoculated 3 to 5 days prior to spraying as indicated. The isopyrazam is formulated as an aqueous suspension concentrate formulation containing 250 g/l of isopyrazam. The suspension concentrate formulation is diluted to the concentrations of isopyrazam shown in the Tables with water prior to spraying. When adjuvant is included it is used at 0.1 %w/v in the spray dilution unless otherwise indicated. An inert non-adjuvant additive is included in all treatments to provide spray retention. The spray application is 200l/ha.
Three assessments are made per pot of wheat with […] fully randomised. The three replicate pots are visually assessed and given a score of disease severity. The percent efficacy corresponds to the reduction in average disease severity in the treated pots compared to the untreated pots as a percentage of the average disease severity of the untreated pots. Each Table represents a side-by-side experiment.

[1] = Table 2, treatment 4 days, assessment 18 days after inoculation
[2] = Table 3, treatment 4 days, assessment 17 days after inoculation
[3] = Table 4, treatment 4 days, assessment 18 days after inoculation
[4] = Table 5, treatment 3 days, assessment 19 days after inoculation
[5] = Table 6, treatment 4 days, assessment 17 days after inoculation
[6] = Table 7, treatment 4 days, assessment 18 days after inoculation

## CC(C)C1C2CCC1c1c(NC(=O)c3cn(C)nc3C(F)F)cccc12 (stereo not drawn) [isopyrazam, Isopyrazam]
[1]
  Emax at 3 µg/mL: 32%
  Emax at 10 µg/mL: 36%
  Emax at 30 µg/mL: 47%
  Emax at 100 µg/mL: 41%
[2]
  Emax at 3 µg/mL: 17.9%
  Emax at 10 µg/mL: -0.53%
  Emax at 30 µg/mL: 10%
  Emax at 100 µg/mL: 8.9%
[3]
  Emax at 3 µg/mL: 41%
  Emax at 10 µg/mL: 39%
  Emax at 30 µg/mL: 29%
  Emax at 100 µg/mL: 25%
[4]
  Emax at 3 µg/mL: 8.8%
  Emax at 10 µg/mL: 9.4%
  Emax at 30 µg/mL: 14%
  Emax at 100 µg/mL: 0.59%
[5]
  Emax at 3 µg/mL: 9.1%
  Emax at 10 µg/mL: 6.8%
  Emax at 30 µg/mL: 19%
  Emax at 100 µg/mL: 14%
[6]
  Emax at 3 µg/mL: 5.1%
  Emax at 10 µg/mL: 15%
  Emax at 30 µg/mL: -18%
  Emax at 100 µg/mL: 32%

— patent EP2629618B1, “AGROCHEMICAL CO[…]” (Syngenta Limited, priority 2010, dated 2012)
